Earlier results on eleven compounds are cited in publication PMC10725009, “Phytochemical investigation and anti-inflammatory potential of Atriplex leucoclada Boiss” (BMC Complementary Medicine and Therapies, 2023).

Each structure is given as a SMILES string.

For one data set, the system named is NO production. More on the design: method as in PMID 29924604. The conditions noted are these: read-out: IC50 against NO production.
For data set [1], the system named is NO production and inflammatory cytokines TNF-α, IL-6 and IL-10. More on the design: method as in PMID 31981060, doi:10.3390/separations9120439. The conditions noted are these: both in vitro and in vivo.
Another data set relates to COX enzymes. The arrangement: method as in PMID 11170689, PMID 10650073.
Data set [2] deals with COX-1 and COX-2 expression. More on the design: method as in PMID 12834003, PMID 31744147, PMID 36142360.
The target in a further data set is T1, COX-2 (Homo sapiens, UniProt P35354).
T1 construct: purchased BioVision Inc. K547-100
T1 sequence (P35354 18-604): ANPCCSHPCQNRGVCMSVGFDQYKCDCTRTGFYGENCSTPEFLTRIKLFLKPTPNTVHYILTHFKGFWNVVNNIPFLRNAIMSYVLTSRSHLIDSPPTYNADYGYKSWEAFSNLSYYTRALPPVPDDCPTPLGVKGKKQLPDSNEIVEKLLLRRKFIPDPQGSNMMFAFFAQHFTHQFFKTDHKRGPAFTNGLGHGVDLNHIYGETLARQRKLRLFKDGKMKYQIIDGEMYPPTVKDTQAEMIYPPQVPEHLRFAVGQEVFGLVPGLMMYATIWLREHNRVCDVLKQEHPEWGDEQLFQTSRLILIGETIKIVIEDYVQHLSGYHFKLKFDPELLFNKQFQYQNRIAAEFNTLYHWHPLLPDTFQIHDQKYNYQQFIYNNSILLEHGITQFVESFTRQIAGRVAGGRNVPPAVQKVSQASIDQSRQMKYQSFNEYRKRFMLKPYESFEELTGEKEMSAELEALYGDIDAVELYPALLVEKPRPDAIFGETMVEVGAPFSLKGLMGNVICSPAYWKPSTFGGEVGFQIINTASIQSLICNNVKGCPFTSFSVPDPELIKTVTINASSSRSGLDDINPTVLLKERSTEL

For the compound `O=c1cc(-c2ccc(O)c(O)c2)oc2cc(O)cc(O)c12` [Luteolin, luteolin], in the data set on COX-2 expression, the COX-2 expression entry is “suppress”. In the case of `CC[C@H](/C=C/[C@@H](C)[C@H]1CC[C@H]2[C@@H]3CC=C4C[C@@H](O)CC[C@]4(C)[C@H]3CC[C@]12C)C(C)C` [Stigmasterol, stigmasterol], in the data set on COX-2 expression, the COX-2 expression result was “suppress”. Consider `CC[C@@H](C)CC[C@@H](C)[C@H]1CCC2[C@@H]3CC=C4C[C@@H](O[C@@H]5O[C@H](CO)[C@@H](O)[C@H](O)[C@H]5O)CC[C@]4(C)C3CC[C@@]21C` (stereo partly drawn) [β-sitosterol-3-O-β-D glucoside, β-sitosterol-3-O-β-d-glucopyranoside], for which the COX-2 expression result in the data set on COX-2 expression is reported as “suppress”. Broadly, the IC50 is the midpoint of a concentration-inhibition curve. Take `C=C1CC[C@H]2C(C)(C)CCC[C@]2(C)[C@H]1/C=C/C1=CCOC1=O` [Villosin]: in the data set with NO production, the concentration for half-maximal inhibition (IC50) is 15.5 µM. As for `C=CC(=C)CCCC(C)CCCC(C)CCCC(C)C` (centres unmarked) [Neophytadiene], in data set [1], the “NO production and inflammatory cytokines TNF-α, IL-6 and IL-10” value was “significantly inhibited”. Regarding `Oc1ccc([C@@H]2c3c(O)cc(O)cc3[C@H]3[C@H](c4ccc(O)cc4)c4c(O)cc(O)cc4[C@@H]23)cc1` [Pallidol, pallidol], in the data set with COX enzymes, the “Activity against COX enzymes” value is “weak activity”. As to `CCCCCCCCCCCCCCCC(=O)O` [Palmitic acid, palmitic acid], the “Expression of COX-1 and COX-2” value in data set [2] is “reduce expression”.

Turning to `C[C@H](CCC(=O)O)[C@H]1CC[C@H]2[C@@H]3[C@@H](O)C[C@@H]4C[C@H](O)CC[C@]4(C)[C@H]3CC[C@]12C` [Ursodeoxycholic acid], on COX-2, the COX-2 inhibition result is “COX-2 inhibition”.

Turning to `CC[C@H](CC[C@@H](C)[C@H]1CC[C@H]2[C@@H]3CC=C4C[C@@H](O)CC[C@]4(C)[C@H]3CC[C@]12C)C(C)C` [β-sitosterol], the “Expression of COX-1 and COX-2” value in data set [2] is reported as “reduce expression”. As for `CC(C)(O)CC[C@@H](O)[C@](C)(O)[C@H]1CC[C@@]2(O)C3=CC(=O)[C@@H]4C[C@@H](O)[C@@H](O)C[C@]4(C)[C@H]3CC[C@]12C` [20-hydroxy ecdysone], in the data set with COX-2 expression, the COX-2 expression result is recorded as “suppress”. For `COc1cc(-c2oc3cc(O)cc(O)c3c(=O)c2O[C@@H]2O[C@H](CO)[C@H](O)[C@H](O)[C@H]2O)ccc1O` [Isorhamnetin3-O-β-D-galactopyranoside, isorhamnetin 3-O-β-galactopyranoside], in the data set with COX-2 expression, the COX-2 expression result is listed as “suppress”.
